Data: patent US9067977B2, “Peptides derivatized with A-B-C-D- and their therapeutical use” (Novo Nordisk A/S, priority 2007, dated 2015)
Starred links: 1 amine or outer side, 2 acyl side, 3 side chain; linkers in the order of their positions; H or OH if unused. Non-standard residues stand in square brackets, D forms with d. Residues, ends and D or L forms follow the SMILES beside them. Groups on a side chain read outwards from the residue. *: point of attachment. C20 diacid = O=C(O)CCCCCCCCCCCCCCCCCCC(=O)*; C18 diacid = O=C(O)CCCCCCCCCCCCCCCCC(=O)*; d(βAsp) = O=C(O)[C@@H](CC(=O)[*:2])N[*:1]; γGlu = O=C(O)[C@H](CCC(=O)[*:2])N[*:1]; Desaminohistidyl = O=C(CCc1c[nH]cn1)*; AEEA = NCCOCCOCC(=O)O; Aib = CC(C)(N)C(=O)O; Inp = O=C(O)C1CCNCC1; Bn = c1ccc(C*)cc1

Biological target: human serum albumin (HSA) (Homo sapiens, UniProt P02768)
Sequence (P02768 25-609): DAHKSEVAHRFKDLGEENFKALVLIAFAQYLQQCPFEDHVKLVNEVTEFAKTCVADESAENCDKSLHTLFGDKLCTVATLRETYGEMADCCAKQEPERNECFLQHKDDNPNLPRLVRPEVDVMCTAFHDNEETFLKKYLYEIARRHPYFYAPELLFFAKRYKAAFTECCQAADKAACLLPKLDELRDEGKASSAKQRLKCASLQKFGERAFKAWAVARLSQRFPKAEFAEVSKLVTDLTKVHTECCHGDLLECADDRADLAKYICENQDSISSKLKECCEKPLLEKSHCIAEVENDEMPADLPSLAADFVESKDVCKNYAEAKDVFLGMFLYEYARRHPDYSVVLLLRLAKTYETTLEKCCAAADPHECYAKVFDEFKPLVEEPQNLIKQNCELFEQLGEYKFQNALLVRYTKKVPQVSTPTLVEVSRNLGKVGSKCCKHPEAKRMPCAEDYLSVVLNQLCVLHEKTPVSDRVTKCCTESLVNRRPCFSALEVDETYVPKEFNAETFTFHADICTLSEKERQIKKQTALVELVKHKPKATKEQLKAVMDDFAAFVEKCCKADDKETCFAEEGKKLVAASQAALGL
Assay: Albumin binding affinity, competition scintillation proximity assay
Details: for EC50 at 20 h: human, biotinylated human serum albumin on streptavidin-SPA beads, pH 7.4
Experimental: Streptavidin-SPA beads (GE Healthcare RPNQ0009) were incubated with biotinylated HSA for 5 hours. The beads were washed with buffer to remove unbound HSA. […] After 20 hours of gentle rocking at room temperature the plates were centrifuged and counted on a TopCounter.

Structure (SMILES)	EC50 at 20 h [nM]	EC50 [nM]
CC[C@H](C)[C@H](NC(=O)[C@H](Cc1ccccc1)NC(=O)[C@H](CCC(=O)O)NC(=O)[C@H](CCCCNC(=O)COCCOCCNC(=O)CC[C@H](NC(=O)CC[C@H](NC(=O)CCCCCNC(=O)CCCS(=O)(=O)NC(=O)CCCCCCCCCCCCCCCc1nnn[nH]1)C(=O)O)C(=O)O)NC(=O)[C@H](C)NC(=O)[C@H](C)NC(=O)[C@H](CCC(N)=O)NC(=O)CNC(=O)[C@H](CCC(=O)O)NC(=O)[C@H](CC(C)C)NC(=O)[C@H](Cc1ccc(O)cc1)NC(=O)[C@H](CO)NC(=O)[C@H](CO)NC(=O)[C@@H](NC(=O)[C@H](CC(=O)O)NC(=O)[C@H](CO)NC(=O)[C@@H](NC(=O)[C@H](Cc1ccccc1)NC(=O)[C@@H](NC(=O)CNC(=O)[C@H](CCC(=O)O)NC(=O)C(C)(C)NC(=O)[C@@H](N)Cc1c[nH]cn1)[C@@H](C)O)[C@@H](C)O)C(C)C)C(=O)N[C@@H](C)C(=O)N[C@@H](Cc1c[nH]c2ccccc12)C(=O)N[C@@H](CC(C)C)C(=O)N[C@H](C(=O)N[C@@H](CCCNC(=N)N)C(=O)O)C(C)C [Example 38, N-epsilon26-[2-(2-{2-[(S)-4-Carboxy-4-((S)-4-carboxy-4-{6-[4-(16-(1H-tetrazol-5-yl)hexadecanoylsulfamoyl)butyrylamino]hexanoylamino}butyrylamino)butyrylamino]ethoxy}ethoxy)acetyl][Aib8,Arg34]GLP-1-(7-34)]	1 to 100	
CC[C@H](C)[C@H](NC(=O)[C@H](Cc1ccccc1)NC(=O)[C@H](CCC(=O)O)NC(=O)[C@H](CCCNC(=N)N)NC(=O)[C@H](C)NC(=O)[C@H](C)NC(=O)[C@H](CCC(N)=O)NC(=O)CNC(=O)[C@H](CCC(=O)O)NC(=O)[C@H](CCCCNC(=O)COCCOCCNC(=O)COCCOCCNC(=O)C[C@@H](NC(=O)C1CCN(C(=O)CCCCCCCCCCCCCCCCC(=O)O)CC1)C(=O)O)NC(=O)[C@H](Cc1ccc(O)cc1)NC(=O)[C@H](CO)NC(=O)[C@H](CO)NC(=O)[C@@H](NC(=O)[C@H](CC(=O)O)NC(=O)[C@H](CO)NC(=O)[C@@H](NC(=O)[C@H](Cc1ccccc1)NC(=O)[C@@H](NC(=O)CNC(=O)[C@H](CCC(=O)O)NC(=O)C(C)(C)NC(=O)[C@@H](N)Cc1c[nH]cn1)[C@@H](C)O)[C@@H](C)O)C(C)C)C(=O)N[C@@H](CCC(=O)O)C(=O)N[C@@H](Cc1c[nH]c2ccccc12)C(=O)N[C@@H](CC(C)C)C(=O)N[C@H](C(=O)N[C@@H](CCCCN)C(=O)NCC(=O)N[C@@H](CCCNC(=N)N)C(=O)NCC(N)=O)[C@@H](C)OCc1ccccc1 [Example 8, N-ε^20({2-[2-(2-{2-[2-((R)-3-carboxy-3-{[1-(17-carboxyheptadecanoyl)piperidine-4-carbonyl]amino}propionylamino)ethoxy]ethoxy}acetylamino)ethoxy]ethoxy}acetyl) [Aib^8,Lys^20,Arg^28,Glu^30,Thr(O-benzyl)^33]GLP-1-(7-37)amide] (H-H[Aib]EGTFTSDVSSYK([AEEA-AEEA-d(βAsp)-Inp-C18 diacid])EGQAAREFIEWLT(Bn)KGRG-NH2; N-terminus assumed)		300 to 800
CC[C@H](C)[C@H](NC(=O)[C@H](Cc1ccccc1)NC(=O)[C@H](CCC(=O)O)NC(=O)[C@H](CCCNC(=N)N)NC(=O)[C@H](C)NC(=O)[C@H](C)NC(=O)[C@H](CCC(N)=O)NC(=O)[C@H](CCC(=O)O)NC(=O)[C@H](CCC(=O)O)NC(=O)[C@H](CC(C)C)NC(=O)[C@H](Cc1ccc(O)cc1)NC(=O)[C@H](CO)NC(=O)[C@H](CO)NC(=O)[C@@H](NC(=O)[C@H](CC(=O)O)NC(=O)[C@H](CO)NC(=O)[C@@H](NC(=O)[C@H](Cc1ccccc1)NC(=O)[C@@H](NC(=O)CNC(=O)[C@H](CCC(=O)O)NC(=O)[C@H](C)NC(=O)CCc1c[nH]cn1)[C@@H](C)O)[C@@H](C)O)C(C)C)C(=O)N[C@@H](C)C(=O)N[C@@H](Cc1c[nH]c2ccccc12)C(=O)N[C@@H](CC(C)C)C(=O)N[C@H](C(=O)N[C@@H](CCCNC(=N)N)C(=O)NCC(=O)N[C@@H](CCCNC(=N)N)C(=O)N[C@@H](CCCCNC(=O)COCCOCCNC(=O)CC[C@H](NC(=O)CC[C@H](NC(=O)CCCCCCCCCCCNC(=O)CCCS(=O)(=O)NC(=O)CCCCCCCCCCCCCCCc1nnn(C(C)(C)C)n1)C(=O)O)C(=O)O)C(=O)O)C(C)C [Example 64, N-epsilon37-{2-[2-(2-{(S)-4-[(S)-4-(12-{4-[16-(2-tert-Butyl-2H-tetrazol-5-yl)-hexadecanoylsulfamoyl]butyrylamino}dodecanoylamino)-4-carboxybutyrylamino]-4-carboxybutyrylamino}ethoxy)ethoxy]acetyl}[DesaminoHis7,Glu22,Arg26,Arg34,Lys37] GLP-1 (7-37)]		1 to 100

Now from value to compound:

EC50 at 20 h [nM]	EC50 [nM]	Structure (SMILES)
100 to 150		CC[C@H](C)[C@H](NC(=O)[C@H](Cc1ccccc1)NC(=O)[C@H](CCC(=O)O)NC(=O)[C@H](CCCNC(=N)N)NC(=O)[C@H](C)NC(=O)[C@H](C)NC(=O)[C@H](CCC(N)=O)NC(=O)[C@H](CCC(=O)O)NC(=O)[C@H](CCC(=O)O)NC(=O)[C@H](CC(C)C)NC(=O)[C@H](Cc1ccc(O)cc1)NC(=O)[C@H](CO)NC(=O)[C@H](CO)NC(=O)[C@@H](NC(=O)[C@H](CC(=O)O)NC(=O)[C@H](CO)NC(=O)[C@@H](NC(=O)[C@H](Cc1ccccc1)NC(=O)[C@@H](NC(=O)CNC(=O)[C@H](CCC(=O)O)NC(=O)[C@H](C)NC(=O)CCc1c[nH]cn1)[C@@H](C)O)[C@@H](C)O)C(C)C)C(=O)N[C@@H](C)C(=O)N[C@@H](Cc1c[nH]c2ccccc12)C(=O)N[C@@H](CC(C)C)C(=O)N[C@H](C(=O)N[C@@H](CCCNC(=N)N)C(=O)NCC(=O)N[C@@H](CCCNC(=N)N)C(=O)NCC(=O)N[C@@H](CCCCNC(=O)COCCOCCNC(=O)CC[C@H](NC(=O)COCCOCCNC(=O)CC[C@H](NC(=O)C1CCN(C(=O)CCCCCCCCCCCCCCCCCCC(=O)O)CC1)C(=O)O)C(=O)O)C(=O)O)C(C)C [Example 58, [DesaminoHis7,Glu22,Arg26,34]-GLP-1 (7-37)-Lys-(2-(2-{2-[(S)-4-carboxy-4-(2-{2-[2-((S)-4-carboxy-4-{[1-(19-carboxynonadecanoyl)piperidine-4-carbonyl]amino}butyrylamino)ethoxy]ethoxy}acetylamino)butyrylamino]ethoxy}ethoxy)acetyl) peptide] (Desaminohistidyl-AEGTFTSDVSSYLEEQAAREFIAWLVRGRGK([AEEA-γGlu-AEEA-γGlu-Inp-C20 diacid])-OH)
	> 2000	CC[C@H](C)[C@H](NC(=O)[C@H](Cc1ccccc1)NC(=O)[C@H](CCC(=O)O)NC(=O)[C@H](CCCNC(=N)N)NC(=O)[C@H](C)NC(=O)[C@H](C)NC(=O)[C@H](CCC(N)=O)NC(=O)CNC(=O)[C@H](CCC(=O)O)NC(=O)[C@H](CC(C)C)NC(=O)[C@H](Cc1ccc(O)cc1)NC(=O)[C@H](CO)NC(=O)[C@H](CO)NC(=O)[C@@H](NC(=O)[C@H](CC(=O)O)NC(=O)[C@H](CO)NC(=O)[C@@H](NC(=O)[C@H](Cc1ccccc1)NC(=O)[C@@H](NC(=O)CNC(=O)[C@H](CCC(=O)O)NC(=O)[C@H](C)NC(=O)CCc1c[nH]cn1)[C@@H](C)O)[C@@H](C)O)C(C)C)C(=O)N[C@@H](C)C(=O)N[C@@H](Cc1c[nH]c2ccccc12)C(=O)N[C@@H](CC(C)C)C(=O)N[C@H](C(=O)N[C@@H](CCCNC(=N)N)C(=O)NCC(=O)N[C@@H](CCCNC(=N)N)C(=O)NCC(=O)N[C@@H](CCCCNC(=O)COCCOCCNC(=O)COCCOCCNC(=O)CC[C@H](NC(=O)C1CCN(C(=O)CCCCCCCCCCCCCCCCCCC(=O)O)CC1)C(=O)O)C(=O)O)C(C)C [Example 59, [DesaminoHis7,Arg26,34]-GLP-1 (7-37)-Lys(2-{2-[2-(2-{2-[2-((S)-4-Carboxy-4-{[1-(19-carboxynonadecanoyl)piperidine-4-carbonyl]amino}butyrylamino)ethoxy]ethoxy}acetylamino)ethoxy]ethoxy}acetyl) peptide]
